Several values for one entry are separate records, joined by “and”; a condition that tells them apart may be missing. Equal entries are not always repeated. Entries after “also recorded” stand apart in the source; their conditions may differ. Where two headings read alike, the source gives them in different places.
Tests used:
[1] = biological target: T1, DC-SIGN S-ECD (Homo sapiens, UniProt Q9NNX6); assay: SPR direct interaction assay on oriented DC-SIGN S-ECD surface; assay type: binding; settings: for Kd: SPR direct interaction, oriented tetrameric DC-SIGN ECD surface, apparent Kd
T1 construct: The ECD of DC-SIGN (residues 66–404) was overexpressed and purified as previously described; made in house
T1 sequence (Q9NNX6 66-404): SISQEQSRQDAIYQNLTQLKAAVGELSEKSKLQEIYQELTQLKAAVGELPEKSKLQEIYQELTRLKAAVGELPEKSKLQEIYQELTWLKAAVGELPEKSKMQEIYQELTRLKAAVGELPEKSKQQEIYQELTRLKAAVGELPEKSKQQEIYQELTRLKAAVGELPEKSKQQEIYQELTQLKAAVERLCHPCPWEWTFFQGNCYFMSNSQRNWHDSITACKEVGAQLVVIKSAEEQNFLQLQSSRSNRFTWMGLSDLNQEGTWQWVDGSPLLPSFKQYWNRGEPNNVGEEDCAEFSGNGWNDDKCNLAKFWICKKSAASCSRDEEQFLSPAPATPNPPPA
In short: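 Tetrameric DC-SIGN ECD carrying an N-terminal StrepTagII was captured in oriented form on streptactin (2,500–3,000 RU), with a streptactin-only control cell. Glycoclusters were injected at increasing concentrations (30 μL/min) in Tris pH 8 buffer with 150 mM NaCl and 4 mM CaCl2. Apparent Kd from a 1:1 fit reflects binding to the whole surface.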

[2] = system: DC-SIGN on moDC; assay: Binding of biotinylated mannoside library to moDCs by flow cytometry; assay type: cell-based, human; settings: 10 μM biotinylated cluster, 30 min at 4°C, streptavidin staining
Procedure: Next, we assessed the binding of our clusters to cellular DC-SIGN using moDCs (Figure 3B, Supplementary Figure 1B). To this end, binding of the clusters a1–a6, b1–b6, c1–c6, d1–d6, and e1–e6, decorated with a biotin handle, was determined by flow cytometry. Clusters were bound to moDCs for 30 min at 4°C. By staining using fluorophore-conjugated streptavidin and washing at 4°C, the bound clusters could be quantified by flow cytometry. […] In control experiments ligand binding to DC-SIGN was inhibited using a blocking anti-DC-SIGN antibody (Supplementary Figure 1C).
Approximately 10^5 day 5 moDCs were washed and resuspended in 100 μL culture medium (pre-cooled to 4°C). 20 μg/mL AZN-D1 (anti-DC-SIGN, in house Geijtenbeek et al., [2002]) or purified mouse anti-human CD206 antibody (Clone 19.2, BD Bioscience) was added to the moDCs and pre-incubated for 45 min on ice. Subsequently, 10 μM of the biotinylated mannoside clusters or 1 μg/mL of Lewis^Y-conjugated polyacrylamide (positive control) was added, and incubated for 30 min at 4°C. Cells were then washed with pre-cooled PBS (4°C), and stained with Alexa647-labeled streptavidin (Invitrogen^TM) in PBS supplemented with 0.5% BSA and 0.02% NaN3 (PBA) for 30 min at 4°C. Upon washing in ice-cold PBA and fixation in PBS with 0.5% PFA, the fluorescence was measured by flow cytometry (CyAn™ ADP with Summit™ Software), and further analyzed using FlowJo v10.

[3] = system: moDCs; assay: Internalization of biotinylated hexavalent clusters by moDCs (flow cytometry); assay type: cell-based, human
In short: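 Immature day-5 moDCs (half gently pre-fixed with 1% PFA) loaded with 20 μM biotinylated clusters for 1 h on ice, washed, then shifted to 37°C; samples taken at time points. Surface retention read by Streptavidin-Alexa647 flow cytometry; parallel run used clusters pre-complexed with pHrodo-Avidin (2:1, 15 min, 37°C).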

[4] = system: moDCs co-cultured with gp100-specific T cells; assay: Antigen presentation by moDCs to gp100-specific T cells (IFNγ ELISA); assay type: cell-based, human; settings: 20 μM conjugate, 30 min pulse, overnight co-culture
Procedure: Lastly, antigen presentation was determined in a human T cell antigen presentation model (Figure 5D). In this assay, the potency of DCs to present the internalized gp100 antigen on the cell surface to gp100-specific T cells is analyzed. The IFNγ secretion of activated T cells upon recognition of the cell surface presented gp100 is measured. Day 5 moDCs were stimulated for 30 min, as the internalization was relatively fast, with the glycopeptides at the assay-optimized concentration of 20 μM (Supplementary Figure 1H). The constructs were washed away before overnight co-culture with gp100-specific T cells. […] The obstruction of antigen presentation was primarily seen with the B6-gp100-TLR7L contradicting the assumption that the best binding constructs will simultaneously maximize T cell activation. […]
Immature day 5 moDCs were seeded in 96-well plates (Greiner) at 50·10^3 cells/well and incubated with 20 μM of the different gp100-conjugates in the presence or absence of the TLR4 ligand LPS (10 ng/mL) or the TLR7 ligand Imiquimod (2.5 μg/mL). […] IFNγ in the supernatant was measured by sandwich ELISA according to the manufacturer's protocol (Biosource), and measured by spectrophotometric analysis on the iMarkTM Microplate Absorbance Reader (Bio-RAD) at 450 nm.

Compound	binding affinity for DC-SIGN relative to B6 (fold lower) [1]	Kd ([1]; read-out: Kdapp)	binding to DC-SIGN on moDC [2]	internalization by moDCs (loss of surface streptavidin signal) ([3]; 20 μM cluster, live moDCs)	uptake by immature moDCs ([3]; after 30 min at 37°C, 20 μM cluster)	internalization by moDCs (pHrodo-avidin fluorescence increase) ([3]; clusters pre-complexed with pH-sensitive dye)	decrease of DC-SIGN affinity on conjugation to gp100 or gp100-TLR7L (factor) ([1]; Kd-app of conjugate vs unconjugated cluster)	Kd ([1]; Kdapp)	antigen presentation (IFNγ release of activated gp100-specific T cells) [4]
CC(=O)N[C@@H](CCCCn1cc(CO[C@H]2O[C@H](CO[C@H]3O[C@H](CO)[C@@H](O)[C@H](O)[C@@H]3O)[C@@H](O)[C@H](O[C@H]3O[C@H](CO)[C@@H](O)[C@H](O)[C@@H]3O)[C@@H]2O)nn1)C(=O)N[C@@H](CCCCn1cc(CO[C@H]2O[C@H](CO[C@H]3O[C@H](CO)[C@@H](O)[C@H](O)[C@@H]3O)[C@@H](O)[C@H](O[C@H]3O[C@H](CO)[C@@H](O)[C@H](O)[C@@H]3O)[C@@H]2O)nn1)C(=O)N[C@@H](CCCCn1cc(CO[C@H]2O[C@H](CO[C@H]3O[C@H](CO)[C@@H](O)[C@H](O)[C@@H]3O)[C@@H](O)[C@H](O[C@H]3O[C@H](CO)[C@@H](O)[C@H](O)[C@@H]3O)[C@@H]2O)nn1)C(=O)N[C@@H](CCCCn1cc(CO[C@H]2O[C@H](CO[C@H]3O[C@H](CO)[C@@H](O)[C@H](O)[C@@H]3O)[C@@H](O)[C@H](O[C@H]3O[C@H](CO)[C@@H](O)[C@H](O)[C@@H]3O)[C@@H]2O)nn1)C(=O)N[C@@H](CCCCn1cc(CO[C@H]2O[C@H](CO[C@H]3O[C@H](CO)[C@@H](O)[C@H](O)[C@@H]3O)[C@@H](O)[C@H](O[C@H]3O[C@H](CO)[C@@H](O)[C@H](O)[C@@H]3O)[C@@H]2O)nn1)C(=O)N[C@@H](CCCCn1cc(CO[C@H]2O[C@H](CO[C@H]3O[C@H](CO)[C@@H](O)[C@H](O)[C@@H]3O)[C@@H](O)[C@H](O[C@H]3O[C@H](CO)[C@@H](O)[C@H](O)[C@@H]3O)[C@@H]2O)nn1)C(=O)NCC(=O)N[C@@H](CCCCN)C(N)=O [E6]	3 fold	2780 nM and 2700 nM	did not observe an increase in binding	remains longer at the surface	25%	endocytosed at lower rate			
CCCCOc1nc(N)c2[nH]c(=O)n(Cc3ccc(C(=O)NCCOCCOCC(=O)NCCCC[C@H](NC(=O)CNC(=O)[C@H](CCCNC(=N)N)NC(=O)[C@H](Cc4c[nH]c5ccccc45)NC(=O)[C@H](CC)NC(=O)[C@H](CC(=O)O)NC(=O)[C@H](CC(C)C)NC(=O)[C@H](CCCNC(=N)N)NC(=O)[C@H](CCC(N)=O)NC(=O)[C@H](C)NC(=O)[C@H](CCC(=O)O)NC(=O)[C@@H](NC(=O)[C@H](Cc4c[nH]c5ccccc45)NC(=O)[C@H](CCC(=O)O)NC(=O)[C@@H]4CCCN4C(=O)[C@H](Cc4ccc(O)cc4)NC(=O)[C@H](CC(C)C)NC(=O)[C@H](CCC(N)=O)NC(=O)[C@H](CCCNC(=N)N)NC(=O)[C@H](CC(N)=O)NC(=O)[C@H](C)NC(=O)[C@@H](NC(=O)[C@@H](NC(=O)[C@@H]4CCCN4C(=O)CNC(=O)[C@@H]4CCCN4C(=O)[C@H](CCC(=O)O)NC(=O)[C@H](CC(C)C)NC(=O)[C@H](Cc4ccc(O)cc4)NC(=O)[C@@H](NC(=O)[C@H](Cc4c[nH]cn4)NC(=O)[C@@H](NC(=O)[C@@H](NC(=O)[C@H](CCCCn4cc(CCC(=O)NCCCC[C@H](NC(=O)CNC(=O)[C@H](CCCCn5cc(CO[C@H]6O[C@H](CO[C@H]7O[C@H](CO)[C@@H](O)[C@H](O)[C@@H]7O)[C@@H](O)[C@H](O[C@H]7O[C@H](CO)[C@@H](O)[C@H](O)[C@@H]7O)[C@@H]6O)nn5)NC(=O)[C@H](CCCCn5cc(CO[C@H]6O[C@H](CO[C@H]7O[C@H](CO)[C@@H](O)[C@H](O)[C@@H]7O)[C@@H](O)[C@H](O[C@H]7O[C@H](CO)[C@@H](O)[C@H](O)[C@@H]7O)[C@@H]6O)nn5)NC(=O)[C@H](CCCCn5cc(CO[C@H]6O[C@H](CO[C@H]7O[C@H](CO)[C@@H](O)[C@H](O)[C@@H]7O)[C@@H](O)[C@H](O[C@H]7O[C@H](CO)[C@@H](O)[C@H](O)[C@@H]7O)[C@@H]6O)nn5)NC(=O)[C@H](CCCCn5cc(CO[C@H]6O[C@H](CO[C@H]7O[C@H](CO)[C@@H](O)[C@H](O)[C@@H]7O)[C@@H](O)[C@H](O[C@H]7O[C@H](CO)[C@@H](O)[C@H](O)[C@@H]7O)[C@@H]6O)nn5)NC(=O)[C@H](CCCCn5cc(CO[C@H]6O[C@H](CO[C@H]7O[C@H](CO)[C@@H](O)[C@H](O)[C@@H]7O)[C@@H](O)[C@H](O[C@H]7O[C@H](CO)[C@@H](O)[C@H](O)[C@@H]7O)[C@@H]6O)nn5)NC(=O)[C@H](CCCCn5cc(CO[C@H]6O[C@H](CO[C@H]7O[C@H](CO)[C@@H](O)[C@H](O)[C@@H]7O)[C@@H](O)[C@H](O[C@H]7O[C@H](CO)[C@@H](O)[C@H](O)[C@@H]7O)[C@@H]6O)nn5)NC(C)=O)C(N)=O)nn4)NC(C)=O)C(C)C)[C@@H](C)O)[C@@H](C)O)C(C)C)[C@@H](C)O)[C@@H](C)O)C(N)=O)cc3)c2n1 [E6-gp100-TLR7L]							about 10	31000 nM	increased T cell activation; also recorded: strongest antigen presentation
